Measurements as given in ChEMBL document CHEMBL1155552, “New hydroxypyrimidinone-containing sulfonamides as carbonic anhydrase inhibitors also acting as MMP inhibitors” (Bioorg Med Chem Lett, 2010).

Assays:
[1] = target: 72 kDa type IV collagenase (Homo sapiens) (UniProt P08253); test: Inhibition of MMP2 at 300 uM
[2] = target: T1, Matrilysin (Homo sapiens) (UniProt P09237); test: Inhibition of MMP7 at 3 uM
T1 sequence (whole entry): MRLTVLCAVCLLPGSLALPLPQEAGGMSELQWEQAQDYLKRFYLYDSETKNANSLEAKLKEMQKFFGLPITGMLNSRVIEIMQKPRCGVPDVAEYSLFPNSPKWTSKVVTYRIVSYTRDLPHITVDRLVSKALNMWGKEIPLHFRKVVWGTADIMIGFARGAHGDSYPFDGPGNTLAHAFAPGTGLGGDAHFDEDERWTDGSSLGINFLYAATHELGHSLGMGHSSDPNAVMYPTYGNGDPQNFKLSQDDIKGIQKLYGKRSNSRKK

[3] = target: Matrix metalloproteinase-14 (Homo sapiens) (UniProt P50281); test: Inhibition of MMP14 at 100 uM
[4] = target: Matrix metalloproteinase-9 (Homo sapiens) (UniProt P14780); test: Inhibition of MMP9 at 30 nM
Sequence of Matrix metalloproteinase-9 (Homo sapiens) (P14780 whole entry): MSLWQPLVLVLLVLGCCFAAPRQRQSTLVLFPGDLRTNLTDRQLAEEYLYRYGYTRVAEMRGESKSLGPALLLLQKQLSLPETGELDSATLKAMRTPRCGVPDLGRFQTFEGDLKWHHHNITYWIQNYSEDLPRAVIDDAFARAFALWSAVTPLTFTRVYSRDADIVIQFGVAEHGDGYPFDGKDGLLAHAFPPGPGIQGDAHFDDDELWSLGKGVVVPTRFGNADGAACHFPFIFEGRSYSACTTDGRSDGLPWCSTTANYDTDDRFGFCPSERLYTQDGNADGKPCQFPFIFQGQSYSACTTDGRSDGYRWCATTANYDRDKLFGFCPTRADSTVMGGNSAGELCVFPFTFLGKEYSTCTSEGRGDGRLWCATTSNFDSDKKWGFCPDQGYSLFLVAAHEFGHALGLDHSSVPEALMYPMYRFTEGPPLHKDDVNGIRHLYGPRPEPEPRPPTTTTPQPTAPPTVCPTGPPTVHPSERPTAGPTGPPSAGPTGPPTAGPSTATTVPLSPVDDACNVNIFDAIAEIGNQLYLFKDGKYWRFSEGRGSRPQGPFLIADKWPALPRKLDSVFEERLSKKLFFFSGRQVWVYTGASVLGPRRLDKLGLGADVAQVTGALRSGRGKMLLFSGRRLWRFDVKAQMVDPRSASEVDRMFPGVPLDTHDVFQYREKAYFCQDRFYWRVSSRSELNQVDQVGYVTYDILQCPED

[5] = target: Matrix metalloproteinase-9 (Homo sapiens) (UniProt P14780); test: Inhibition of MMP9 at 3 uM
[6] = target: Matrix metalloproteinase-9 (Homo sapiens) (UniProt P14780); test: Inhibition of MMP9 at 100 uM
[7] = target: 72 kDa type IV collagenase (Homo sapiens) (UniProt P08253); test: Inhibition of MMP2 at 30 nM
[8] = target: 72 kDa type IV collagenase (Homo sapiens) (UniProt P08253); test: Inhibition of MMP2 at 3 uM
[9] = target: T1, Matrilysin (Homo sapiens); test: Inhibition of MMP7 at 100 uM
Carbonic anhydrase 9 = Carbonic anhydrase 9 (Homo sapiens, UniProt Q16790)
Description: Inhibition of human carbonic anhydrase 9

Carbonic anhydrase 2 = Carbonic anhydrase 2 (Homo sapiens, UniProt P00918); test: Inhibition of human carbonic anhydrase 2
[10] = target: Matrix metalloproteinase-9 (Homo sapiens) (UniProt P14780); test: Inhibition of MMP9 at 10 uM
[11] = target: Matrix metalloproteinase-9 (Homo sapiens) (UniProt P14780); test: Inhibition of MMP9 at 1 uM
[12] = target: 72 kDa type IV collagenase (Homo sapiens) (UniProt P08253); test: Inhibition of MMP2 at 30 uM
[13] = target: 72 kDa type IV collagenase (Homo sapiens) (UniProt P08253); test: Inhibition of MMP2 at 100 uM
[14] = target: Matrix metalloproteinase-14 (Homo sapiens) (UniProt P50281); test: Inhibition of MMP14 at 3 uM

Sequence of 72 kDa type IV collagenase (Homo sapiens) (P08253 110-660 limits assumed): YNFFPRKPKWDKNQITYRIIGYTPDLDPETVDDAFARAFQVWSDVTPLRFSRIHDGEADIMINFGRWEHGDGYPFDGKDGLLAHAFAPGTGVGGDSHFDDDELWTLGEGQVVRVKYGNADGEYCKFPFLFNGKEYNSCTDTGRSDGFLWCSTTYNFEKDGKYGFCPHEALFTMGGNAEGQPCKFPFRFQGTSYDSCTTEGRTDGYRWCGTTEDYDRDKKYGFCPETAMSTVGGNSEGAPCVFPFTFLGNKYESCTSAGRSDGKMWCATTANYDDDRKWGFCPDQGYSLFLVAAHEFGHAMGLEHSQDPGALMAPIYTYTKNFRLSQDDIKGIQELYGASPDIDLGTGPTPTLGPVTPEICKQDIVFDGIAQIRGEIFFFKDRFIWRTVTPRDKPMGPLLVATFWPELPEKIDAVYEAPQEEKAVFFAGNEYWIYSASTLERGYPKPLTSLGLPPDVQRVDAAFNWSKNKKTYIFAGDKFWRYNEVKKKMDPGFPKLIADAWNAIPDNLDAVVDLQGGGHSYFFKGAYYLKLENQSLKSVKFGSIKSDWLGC

`NCCCCNc1ccn(O)c(=O)n1` gave an inhibition [1] of 88%, an inhibition [2] of 9% and an inhibition [3] of 28%. For the same compound, the inhibition [4] was 1%, the inhibition [5] was 6% and the inhibition [6] was 26%. The inhibition [7] was 30%, the inhibition [8] was 22% and the inhibition [9] was 29%.

`COC(=O)CCCCCNc1ccn(O)c(=O)n1` was tested, and the Ki (Carbonic anhydrase 9) was > 1000 nM and the Ki (Carbonic anhydrase 2) was 270000 nM.

In the case of `NS(=O)(=O)c1ccc(CCNC(=O)CCCCCNc2ccn(O)c(=O)n2)cc1`, the Ki (Carbonic anhydrase 9) is reported as 4.1 nM.

In the case of `NS(=O)(=O)c1ccc(CCNc2ccn(O)c(=O)n2)cc1`, the inhibition [10] is reported as 9%, the inhibition [11] is reported as 6% and the inhibition [3] is reported as 48%. For the same compound, the inhibition [12] was 19.6%, the inhibition [6] was 67% and the inhibition [8] was 7.4%. It also gave an inhibition [9] of 38% and an inhibition [13] of 86%.

Work on `NS(=O)(=O)c1ccc(NC(=O)CCCNc2ccn(O)c(=O)n2)cc1` yielded a Ki (Carbonic anhydrase 9) of 3.4 nM.

`NCCCCCNc1ccn(O)c(=O)n1` gave an inhibition [2] of 1%, an inhibition [3] of 42% and an inhibition [5] of 3%. The inhibition [6] was 23%, the inhibition [14] was 3% and the inhibition [8] was 9%. The inhibition [9] was 30% and the inhibition [13] was 24%.
